Experimental data taken from patent US20050032754A1, “5,6-Trans-2-alkylvitamin D derivatives” (Hiroaki TAKAYAMA, priority 2000, published 2005).

Biological target: T1, Bovine thymus 1α,25-dihydroxyvitamin D3 receptor (VDR) (Bos taurus, UniProt Q28037)
T1 sequence (Q28037 1-426): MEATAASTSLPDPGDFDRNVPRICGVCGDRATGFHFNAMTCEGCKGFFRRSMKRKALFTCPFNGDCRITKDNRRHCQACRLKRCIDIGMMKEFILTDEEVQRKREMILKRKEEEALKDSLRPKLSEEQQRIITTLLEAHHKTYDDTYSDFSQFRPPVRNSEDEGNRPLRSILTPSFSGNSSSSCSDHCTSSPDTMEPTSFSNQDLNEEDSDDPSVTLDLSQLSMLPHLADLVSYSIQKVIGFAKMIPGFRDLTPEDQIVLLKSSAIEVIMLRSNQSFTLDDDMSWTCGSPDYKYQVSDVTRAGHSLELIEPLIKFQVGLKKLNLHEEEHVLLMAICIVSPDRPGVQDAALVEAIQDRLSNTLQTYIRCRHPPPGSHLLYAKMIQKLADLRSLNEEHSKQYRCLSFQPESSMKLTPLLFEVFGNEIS
Details: relative value, 1α,25-dihydroxyvitamin D3 taken as 100; X=(y/x)×100 from concentrations inhibiting 50% of [3H]-1α,25-dihydroxyvitamin D3 binding (0.1 nM) to VDR

SMILES | VDR binding property
C=C1/C(=C/C=C2\CCCC3(C)C2CCC3[C@H](C)CCCC(C)(C)O)C[C@H](O)[C@H](C)[C@@H]1O (stereo partly drawn) [Example 6, (5E,7E)-(1S,2S,3S)-2-methyl-9,10-seco-5,7,10(19)-cholestatriene-1,3,25-triol] | 0.013
C=C1C(=CC=C2CCCC3(C)C2CCC3C(C)CCCC(C)(C)O)CC(O)C(C)C1O [Example 4, (5E,7E)-(1R,2S,3R)-2-methyl-9,10-seco-5,7,10(19)-cholestatriene-1,3,25-triol] | < 0.01
C=C1/C(=C/C=C2\CCC[C@]3(C)[C@@H]([C@H](C)CCCC(C)(C)O)CC[C@@H]23)C[C@@H](O)[C@@H](C)[C@H]1O [Example 3, (5E,7E)-(1R,2R,3R)-2-methyl-9,10-seco-5,7,10(19)-cholestatriene-1,3,25-triol] | 0.1
C=C1/C(=C/C=C2\CCCC3(C)C2CCC3[C@H](C)CCCC(C)(C)O)C[C@H](O)[C@@H](C)[C@H]1O (stereo partly drawn) [Example 7, (5E,7E)-(1R,2R,3S)-2-methyl-9,10-seco-5,7,10(19)-cholestatriene-1,3,25-triol] | 0.03
C=C1/C(=C/C=C2\CCCC3(C)C2CCC3[C@H](C)CCCC(C)(C)O)C[C@H](O)[C@@H](C)[C@@H]1O (stereo partly drawn) [Example 5, (5E,7E)-(1S,2R,3S)-2-methyl-9,10-seco-5,7,10(19)-cholestatriene-1,3,25-triol] | 0.04
C=C1/C(=C/C=C2\CCCC3(C)C2CCC3[C@H](C)CCCC(C)(C)O)C[C@@H](O)[C@@H](C)[C@@H]1O (stereo partly drawn) [Example 1, (5E,7E)-(1S,2R,3R)-2-methyl-9,10-seco-5,7,10(19)-cholestatriene-1,3,25-triol] | 8.6
C=C1/C(=C/C=C2\CCCC3(C)C2CCC3[C@@H](C)CCCC(C)(C)O)C[C@@H](O)[C@@H](C)[C@@H]1O (stereo partly drawn) [Example 9, (5E,7E)-(1S,2R,3R,20S)-2-methyl-9,10-seco-5,7,10(19)-cholestatriene-1,3,25-triol] | 45
C=C1/C(=C/C=C2\CCCC3(C)C2CCC3[C@H](C)CCCC(C)(C)O)C[C@@H](O)[C@H](C)[C@@H]1O (stereo partly drawn) [Example 2, (5E,7E)-(1S,2S,3R)-2-methyl-9,10-seco-5,7,10(19)-cholestatriene-1,3,25-triol] | 0.4
C=C1/C(=C/C=C2\CCCC3(C)C2CCC3[C@H](C)CCCC(C)(C)O)C[C@H](O)[C@H](C)[C@H]1O (stereo partly drawn) [Example 8, (5E,7E)-(1R,2S,3S)-2-methyl-9,10-seco-5,7,10(19)-cholestatriene-1,3,25-triol] | < 0.01

The remaining lines, values ahead:

VDR binding property | SMILES
0.2 | C=C1/C(=C/C=C2\CCCC3(C)C2CCC3[C@@H](C)CCCC(C)(C)O)C[C@H](O)[C@@H](C)[C@H]1O (stereo partly drawn) [Example 15, (5E,7E)-(1R,2R,3S,20S)-2-methyl-9,10-seco-5,7,10(19)-cholestatriene-1,3,25-triol]
0.03 | C=C1/C(=C/C=C2\CCCC3(C)C2CCC3[C@@H](C)CCCC(C)(C)O)C[C@@H](O)[C@H](C)[C@H]1O (stereo partly drawn) [Example 12, (5E,7E)-(1R,2S,3R,20S)-2-methyl-9,10-seco-5,7,10(19)-cholestatriene-1,3,25-triol]
1 | C=C1/C(=C/C=C2\CCCC3(C)C2CCC3[C@@H](C)CCCC(C)(C)O)C[C@@H](O)[C@H](C)[C@@H]1O (stereo partly drawn) [Example 10, (5E,7E)-(1S,2S,3R,20S)-2-methyl-9,10-seco-5,7,10(19)-cholestatriene-1,3,25-triol]
0.5 | C=C1/C(=C/C=C2\CCCC3(C)C2CCC3[C@@H](C)CCCC(C)(C)O)C[C@H](O)[C@@H](C)[C@@H]1O (stereo partly drawn) [Example 13, (5E,7E)-(1S,2R,3S,20S)-2-methyl-9,10-seco-5,7,10(19)-cholestatriene-1,3,25-triol]
0.8 | C=C1C(=CC=C2CCCC3(C)C2CCC3C(C)CCCC(C)(C)O)CC(O)C(C)C1O [Example 11, (5E,7E)-(1R,2R,3R,20S)-2-methyl-9,10-seco-5,7,10(19)-cholestatriene-1,3,25-triol]
0.2 | C=C1/C(=C/C=C2\CCCC3(C)C2CCC3[C@@H](C)CCCC(C)(C)O)C[C@H](O)[C@H](C)[C@@H]1O (stereo partly drawn) [Example 14, (5E,7E)-(1S,2S,3S,20S)-2-methyl-9,10-seco-5,7,10(19)-cholestatriene-1,3,25-triol]
0.08 | C=C1/C(=C/C=C2\CCCC3(C)C2CCC3[C@@H](C)CCCC(C)(C)O)C[C@H](O)[C@H](C)[C@H]1O (stereo partly drawn) [Example 16, (5E,7E)-(1R,2S,3S,20S)-2-methyl-9,10-seco-5,7,10(19)-cholestatriene-1,3,25-triol]
